Measured values: patent US6461997B1, “Triazole sulfones having herbicidal activity” (Monsanto Technology LLC, priority 1999, dated 2002)

The molecules below were run on ALOMY (blackgrass) (assay: Post-emergence herbicidal activity, cool season). Settings: abraded plants sprayed at 300, 100, 30 and 10 g/ha; about 14 days after treatment.
Assay type: in vivo, Alopecurus myosuroides
Method: (§1) In another set of tests, the post-emergence activity of compounds of this invention was evaluated on the cool season species listed above. The following procedure was used.
(§2) A pre-prepared topsoil mixture (described above) was placed in a pot and compacted to a depth of 1.0 to 1.25 cm from the top of the pot. Seeds of each of several monocotyledonous and dicotyledonous annual plant species were placed on top of the soil. The seeds were covered with a mixture of 50% topsoil and 50% Rediearth™ in sufficient quantity to level-fill the pots. The pots were then placed on a greenhouse bench and subirrigated as needed.
(§3) When plants growing from the seeds had emerged and reached a suitable growth stage for post-emergence treatment, typically 9 to 14 days after planting, above-ground parts of the plants were subjected to a pre-treatment involving abrasion to create greater opportunity for foliar uptake of subsequently applied compounds. Abrasion was performed using garnet 200w particles applied with a Sears Craftsman hand-held sandblaster operated at approximately 850 kPa (50 psig) pressure.
(§4) A known amount of each test compound dissolved or suspended in an appropriate organic solvent was diluted with a 50:50 mix of acetone and water and applied to the plants by spraying with a standard spray nozzle in a spray volume of […] at a spray pressure of 511 kPa (30 psig). Only the compounds of Examples 1, 8-15 and 17-22 were included in post-emergence tests. Application rates for these compounds were 300, 100, 30 and 10 g/ha. Control plants were abraded but not sprayed.
(§5) After treatment the plants were placed in a greenhouse with an 18/13° C. day/night temperature regime and were subsequently watered as needed for growth. Approximately 14 days after treatment, the plants were observed and herbicidal efficacy recorded as percent inhibition by comparison with control plants. GR80 values were assigned for each compound as described above for the pre-emergence tests.

SMILES | Post-emergence activity GR80, ALOMY
CCN(CC)C(=O)n1cnc(S(=O)(=O)C(F)(F)SC)n1 [Example 9] | [empty]
C=C(C)CC(F)(F)S(=O)(=O)c1ncn(C(=O)N(CC)CC)n1 [Example 18] | [empty]

These molecules were tested on SETFA (giant foxtail) (assay: Pre-plant incorporated (PPI) herbicidal activity, warm season). Settings: PPI application, 30 g/ha.
Assay type: in vivo, Setaria faberi
Method: (§6) In another set of tests, the pre-plant incorporated (PPI) activity of compounds of this invention was evaluated on the same species as for the pre-emergence tests described above. In the PPI tests the following procedure, designed to simulate PPI application, was used.
(§7) A pre-prepared topsoil mixture (described above) was placed in a pot and compacted to a depth of 1.0 to 1.25 cm from the top of the pot. Seeds of each of several monocotyledonous and dicotyledonous annual plant species were placed on top of the soil. A sufficient quantity of soil to cover the seeds and level fill the pot was weighed into an open container. A known amount of the test compound was dissolved or suspended in an organic solvent and applied by spraying to this cover soil. The cover soil was thoroughly mixed to distribute the test compound throughout the cover soil, and was then applied as a cover layer over the seeds. Untreated soil was used as a cover layer for control pots. After treatment the plants were placed in a greenhouse where they received 0.64 cm of overhead irrigation. All subsequent watering consisted of a light overhead mist and/or subirrigation as needed for germination and growth. Tables 9 and 10 below relate to warm season plant species which were placed after pre-emergence treatment in a greenhouse with a 30/21° C. day/night temperature regime. Tables 11 and 12 below relates to cool season plant species placed after pre-emergence treatment in a greenhouse or growth chamber with an 18/13° C. day/night temperature regime. Only the compounds of Examples 1, 6, 8, 11, 13 and 15-20 were included in PPI tests.
(§8) Approximately 14 days after planting and treating, the plants were observed and herbicidal efficacy recorded as percent inhibition by comparison with untreated plants.

SMILES | Percent inhibition SETFA
CCN(CC)C(=O)n1cnc(S(=O)(=O)C(F)(F)SC)n1 [Example 9] | 95%

Same assay, conditions: PPI application, 100 g/ha

SMILES | Percent inhibition SETFA
CCN(CC)C(=O)n1cnc(S(=O)(=O)C(F)(F)SC)n1 [Example 9] | 100%

Same assay, conditions: PPI application, 300 g/ha

SMILES | Percent inhibition SETFA
CCN(CC)C(=O)n1cnc(S(=O)(=O)C(F)(F)SC)n1 [Example 9] | 100%

Same assay, conditions: PPI application, 900 g/ha

SMILES | Percent inhibition SETFA
CCN(CC)C(=O)n1cnc(S(=O)(=O)C(F)(F)SC)n1 [Example 9] | 100%

Same assay, conditions: Setaria faberi; PPI application, 10 g/ha; read-out: Percent inhibition SETFA

SMILES | inhibition at 10 g/ha
C=C(C)CC(F)(F)S(=O)(=O)c1ncn(C(=O)N(CC)CC)n1 [Example 18] | 100%

Same assay, conditions: Setaria faberi; PPI application, 30 g/ha; read-out: Percent inhibition SETFA

SMILES | inhibition at 30 g/ha
C=C(C)CC(F)(F)S(=O)(=O)c1ncn(C(=O)N(CC)CC)n1 [Example 18] | 90%

Same assay, conditions: Setaria faberi; PPI application, 100 g/ha; read-out: Percent inhibition SETFA

SMILES | inhibition at 100 g/ha
C=C(C)CC(F)(F)S(=O)(=O)c1ncn(C(=O)N(CC)CC)n1 [Example 18] | 90%

Same assay, conditions: Setaria faberi; PPI application, 300 g/ha; read-out: Percent inhibition SETFA

SMILES | inhibition at 300 g/ha
C=C(C)CC(F)(F)S(=O)(=O)c1ncn(C(=O)N(CC)CC)n1 [Example 18] | 100%

Same assay, conditions: Setaria faberi; PPI application, 900 g/ha; read-out: Percent inhibition SETFA

SMILES | inhibition at 900 g/ha
C=C(C)CC(F)(F)S(=O)(=O)c1ncn(C(=O)N(CC)CC)n1 [Example 18] | 100%

Same assay, conditions: pre-plant incorporated; lowest tested rate with 80% or greater inhibition; about 14 days

SMILES | PPI activity GR80, SETFA
C=C(C)CC(F)(F)S(=O)(=O)c1ncn(C(=O)N(CC)CC)n1 [Example 18] | 100 g/ha

These molecules were tested on BROTE (downy brome) (assay: Pre-plant incorporated (PPI) herbicidal activity, cool season). Settings: Bromus tectorum; weed, PPI application, 10 g/ha; read-out: Percent inhibition BROTE.
Assay type: in vivo, Bromus tectorum
Method: as §6, §7, §8

SMILES | inhibition at 10 g/ha
C=C(C)CC(F)(F)S(=O)(=O)c1ncn(C(=O)N(CC)CC)n1 [Example 18] | 0%

Same assay, conditions: Bromus tectorum; weed, PPI application, 30 g/ha; read-out: Percent inhibition BROTE

SMILES | inhibition at 30 g/ha
C=C(C)CC(F)(F)S(=O)(=O)c1ncn(C(=O)N(CC)CC)n1 [Example 18] | 0%

Same assay, conditions: Bromus tectorum; weed, PPI application, 100 g/ha; read-out: Percent inhibition BROTE

SMILES | inhibition at 100 g/ha
C=C(C)CC(F)(F)S(=O)(=O)c1ncn(C(=O)N(CC)CC)n1 [Example 18] | 0%

Same assay, conditions: Bromus tectorum; weed, PPI application, 300 g/ha; read-out: Percent inhibition BROTE

SMILES | inhibition at 300 g/ha
C=C(C)CC(F)(F)S(=O)(=O)c1ncn(C(=O)N(CC)CC)n1 [Example 18] | 20%

Same assay, conditions: Bromus tectorum; weed, PPI application, 900 g/ha; read-out: Percent inhibition BROTE

SMILES | inhibition at 900 g/ha
C=C(C)CC(F)(F)S(=O)(=O)c1ncn(C(=O)N(CC)CC)n1 [Example 18] | 90%

Same assay, conditions: pre-plant incorporated; lowest tested rate with 80% or greater inhibition; about 14 days

SMILES | PPI activity GR80, BROTE
C=C(C)CC(F)(F)S(=O)(=O)c1ncn(C(=O)N(CC)CC)n1 [Example 18] | 300 g/ha

Same assay, conditions: weed, PPI application, 30 g/ha

SMILES | Percent inhibition BROTE
CCN(CC)C(=O)n1cnc(S(=O)(=O)C(F)(F)SC)n1 [Example 9] | 0%

Same assay, conditions: weed, PPI application, 100 g/ha

SMILES | Percent inhibition BROTE
CCN(CC)C(=O)n1cnc(S(=O)(=O)C(F)(F)SC)n1 [Example 9] | 0%

Same assay, conditions: weed, PPI application, 300 g/ha

SMILES | Percent inhibition BROTE
CCN(CC)C(=O)n1cnc(S(=O)(=O)C(F)(F)SC)n1 [Example 9] | 20%

Same assay, conditions: weed, PPI application, 900 g/ha

SMILES | Percent inhibition BROTE
CCN(CC)C(=O)n1cnc(S(=O)(=O)C(F)(F)SC)n1 [Example 9] | 95%

Each molecule was assayed on BROTE (downy brome) (assay: Post-emergence herbicidal activity, cool season). Settings: abraded plants sprayed at 300, 100, 30 and 10 g/ha; about 14 days after treatment.
Assay type: in vivo, Bromus tectorum
Method: as §1, §2, §3, §4, §5

SMILES | Post-emergence activity GR80, BROTE
CCN(CC)C(=O)n1cnc(S(=O)(=O)C(F)(F)SC)n1 [Example 9] | [empty]
C=C(C)CC(F)(F)S(=O)(=O)c1ncn(C(=O)N(CC)CC)n1 [Example 18] | [empty]

These molecules were tested on SETVI (green foxtail) (assay: Pre-plant incorporated (PPI) herbicidal activity, cool season). Settings: Setaria viridis; weed, PPI application, 10 g/ha; read-out: Percent inhibition SETVI.
Assay type: in vivo, Setaria viridis
Method: as §6, §7, §8

SMILES | inhibition at 10 g/ha
C=C(C)CC(F)(F)S(=O)(=O)c1ncn(C(=O)N(CC)CC)n1 [Example 18] | 100%

Same assay, conditions: Setaria viridis; weed, PPI application, 30 g/ha; read-out: Percent inhibition SETVI

SMILES | inhibition at 30 g/ha
C=C(C)CC(F)(F)S(=O)(=O)c1ncn(C(=O)N(CC)CC)n1 [Example 18] | 100%

Same assay, conditions: Setaria viridis; weed, PPI application, 100 g/ha; read-out: Percent inhibition SETVI

SMILES | inhibition at 100 g/ha
C=C(C)CC(F)(F)S(=O)(=O)c1ncn(C(=O)N(CC)CC)n1 [Example 18] | 100%

Same assay, conditions: Setaria viridis; weed, PPI application, 300 g/ha; read-out: Percent inhibition SETVI

SMILES | inhibition at 300 g/ha
C=C(C)CC(F)(F)S(=O)(=O)c1ncn(C(=O)N(CC)CC)n1 [Example 18] | 60%

Same assay, conditions: Setaria viridis; weed, PPI application, 900 g/ha; read-out: Percent inhibition SETVI

SMILES | inhibition at 900 g/ha
C=C(C)CC(F)(F)S(=O)(=O)c1ncn(C(=O)N(CC)CC)n1 [Example 18] | 100%

Same assay, conditions: pre-plant incorporated; lowest tested rate with 80% or greater inhibition; about 14 days

SMILES | PPI activity GR80, SETVI
C=C(C)CC(F)(F)S(=O)(=O)c1ncn(C(=O)N(CC)CC)n1 [Example 18] | 30 g/ha

Same assay, conditions: weed, PPI application, 30 g/ha

SMILES | Percent inhibition SETVI
CCN(CC)C(=O)n1cnc(S(=O)(=O)C(F)(F)SC)n1 [Example 9] | 99%

Same assay, conditions: weed, PPI application, 100 g/ha

SMILES | Percent inhibition SETVI
CCN(CC)C(=O)n1cnc(S(=O)(=O)C(F)(F)SC)n1 [Example 9] | 100%

Same assay, conditions: weed, PPI application, 300 g/ha

SMILES | Percent inhibition SETVI
CCN(CC)C(=O)n1cnc(S(=O)(=O)C(F)(F)SC)n1 [Example 9] | 100%

Same assay, conditions: weed, PPI application, 900 g/ha

SMILES | Percent inhibition SETVI
CCN(CC)C(=O)n1cnc(S(=O)(=O)C(F)(F)SC)n1 [Example 9] | 100%

Each molecule was assayed on STEME (common chickweed) in the same assay as above. Settings: pre-plant incorporated; lowest tested rate with 80% or greater inhibition; about 14 days.
Assay type: in vivo, Stellaria media
Method: as §6, §7, §8

SMILES | PPI activity GR80, STEME
C=C(C)CC(F)(F)S(=O)(=O)c1ncn(C(=O)N(CC)CC)n1 [Example 18] | 100 g/ha

Same assay, conditions: weed, PPI application, 30 g/ha

SMILES | Percent inhibition STEME
CCN(CC)C(=O)n1cnc(S(=O)(=O)C(F)(F)SC)n1 [Example 9] | 70%

Same assay, conditions: weed, PPI application, 100 g/ha

SMILES | Percent inhibition STEME
CCN(CC)C(=O)n1cnc(S(=O)(=O)C(F)(F)SC)n1 [Example 9] | 95%

Same assay, conditions: weed, PPI application, 300 g/ha

SMILES | Percent inhibition STEME
CCN(CC)C(=O)n1cnc(S(=O)(=O)C(F)(F)SC)n1 [Example 9] | 100%

Same assay, conditions: weed, PPI application, 900 g/ha

SMILES | Percent inhibition STEME
CCN(CC)C(=O)n1cnc(S(=O)(=O)C(F)(F)SC)n1 [Example 9] | 100%
